According to patent US20220002806A1, “BIOMARKER” (ERBER AKTIENGESELLSCHAFT, priority 2018, published 2022):

Test system: miRNAs in uterus tissue
Assay: Small RNA sequencing (RNA-Seq) of miRNAs in uterus tissue of ZEN-exposed piglets
Assay type: in vivo, pig (Sus scrofa)
Conditions: for fold change of ssc-miRNA-542-3p in uterus compared to the control group: highest fold change of the group
From the text: Weaned female piglets (sow: Landrace×Large White, boar: Pietrain; 30+/−2 days old) were obtained from a local producer and individually tagged. Piglets were housed in slatted floor pens under controlled environmental conditions. After an acclimatization period of seven days, twenty-four female piglets were selected based on both body weight and vulva size, and allocated to one of four groups (6 animals/group). Piglets received either blank feed (negative control; Ctrl) or feed contaminated with ZEN in three increasing concentrations (ZEN low: 0.17 mg/kg diet; ZEN medium: 1.5 mg/kg diet; ZEN high: 4.6 mg/kg diet). During the 28-day experimental period, each treatment group was given free access to water and the assigned diet. The pigs were observed daily and weighed weekly.
After 28 days of dietary exposure to the experimental diets, pigs were anesthetized by intramuscular injection of ketamine (0.1 mL/kg body weight (b.w.) Narketan®, Vétoquinol GmbH, Ravensburg, Germany) and azaperone (0.03 mL/kg b.w.; Stresnil®, Janssen-Cilag, Neuss, Germany). Subsequently, animals were euthanized by intracardial injection of T61® (Intervet, UnterschleiBheim, Germany; 0.1 ml/kg b.w.). The whole reproductive tract was collected, weighed and examined for any clinical signs. Small pieces of the corpus uteri and the mid-jejunum were dissected, placed into 1 mL of RNAlater, and stored overnight at 4° C. The next day, all the tissue samples were transferred to −80° C. for long-term storage, and until processed for transcriptomics analysis.
miRNA Extraction and Library Preparation: A total of 18 animals was used for investigations on the miRNA profile in the tissues: 6 from Ctrl, 4 from ZEN low, 4 from ZEN medium, and 4 from ZEN high. About 30 mg of tissue from uterus or jejunum was disrupted via a bead-beating step, and the total RNA, including RNA from approximately 18 nucleotides upwards, was extracted and purified with the miRNeasy Mini Kit (Qiagen, Hilden, Germany), following the manufacturer's instructions. The concentration of RNA was first estimated on the Nanodrop (Termo Scientifc NanoDrop 2000, USA), and again with the Agilent 2100 Bioanalyzer (Agilent Technologies, Germany) during the measurement of the RIN for determining the RNA quality. In total 1 μg of total RNA was used for construction of small RNA sequencing libraries using the NEBNext Multiplex SmallRNA Library preparation set for Illumina (New England Biolabs). Adapter-ligated total RNA was reverse transcribed into cDNA, which was used as template for PCR amplification (15 cycles) using Illumina's SR Primer and Index Primers 1-18. Barcoded DNA libraries were purified using the QIAQuick PCR purification protocol (Qiagen, Hilden, Germany) and quantified using the DNA 1000 high sensitivity chip (Agilent Technologies, Germany). Purified samples were pooled at equimolar (50 nM) concentration. Size selection was performed using gel purification to select for insert sizes between 18 and 50 nucleotides. The final multiplexed (n=18) libraries were sequenced on a NextSeq 500 sequencing instrument according to the manufacturer instructions. Raw data was de-multiplexed and FASTQ files for each sample was generated using the bcl2fastq software (Illumina inc.). FASTQ data was checked using the FastQC online tool (http://www.bioinformatics.babraham.ac.uk/projects/fastqc/).
RNA sequencing (RNA-Seq) Bioinformatics Analysis: Total reads were adapter trimmed using Cutadapt and quality filtered (Q-Score >30) using the FastQC tool. Trimmed and quality filtered reads were aligned to reference miRNA sequences in miRBase release 21 (www.mirbase.org; Kozomora and Griffiths-Jones. 2014. Nucleid Acids Research, 42, D68-D73) using bowtie2. Subsequently, reads were mapped against the Sus scrofa genome assembly Sscrofa10.2 as well as Ensembl small non-coding RNA reference databases. Reads were normalized to the total read count per library to generate tags per million (TPM) values. […]

[1] = Ctrl vs ZEN high (4.6 mg/kg diet), 28 days in feed
[2] = Ctrl vs ZEN low (0.17 mg/kg diet), 28 days in feed
[3] = ZEN high group (4.6 mg/kg diet) vs Ctrl, 28 days in feed
[4] = both ZEN medium (1.5 mg/kg diet) and ZEN high (4.6 mg/kg diet) group vs Ctrl, 28 days in feed

## C[C@H]1CCCC(=O)CCC/C=C/c2cc(O)cc(O)c2C(=O)O1 [ZEN, (2E,11S)-15,17-dihydroxy-11-methyl-12-oxabicyclo[12.4.0]octadeca-1(18),2,14,16-tetraene-7,13-dione]
[1]
  log2 fold change of hsa-miR-135b-5p in uterus: log2 fold change Ctrl vs ZEN high ≤ −1.5,
  log2 fold change of hsa-miR-301a-5p in uterus: log2 fold change Ctrl vs ZEN high ≤ −1.5,
  log2 fold change of put-miR-300 in uterus: ZEN high ≤ −1.5, TPM > 10
  log2 fold change of ssc-miR-22-3p in uterus: Ctrl vs ZEN high ≥ 1.5; TPM > 10
  log2 fold change of ssc-miR-129a in uterus: log2 fold change Ctrl vs ZEN high < −1.5,
  log2 fold change of ssc-miR-135 in uterus: ZEN high ≤ −1.5, TPM > 10
  log2 fold change of ssc-miR-143-5p in uterus: ZEN high ≥ −1.5, TPM > 10
  log2 fold change of ssc-miR-187 in uterus: Crtrl vs ZEN high ≤ −1.5
  log2 fold change of ssc-miR-204 in uterus: log2 fold change Ctrl vs ZEN high ≤ −1.5,
  log2 fold change of ssc-miR-432-5p in uterus: change Ctrl vs ZEN high ≥ 1.5, specificity
  log2 fold change of ssc-miR-493-3p in uterus: log2 fold change Ctrl vs ZEN high ≥ 1.5,
  log2 fold change of ssc-miR-542-3p in uterus: ZEN high ≥ 1.5, TPM > 10
  log2 fold change of ssc-miR-758 in uterus: change Ctrl vs ZEN high ≥ 1.5
[2]
  log2 fold change of hsa-miR-135b-5p in uterus: log2 fold change Ctrl vs ZEN low ≤ −0.3,
  log2 fold change of hsa-miR-301a-5p in uterus: log2 fold change Ctrl vs ZEN low ≤ −0.3,
  log2 fold change of ssc-miR-22-3p in uterus: change Ctrl vs ZEN low ≥ 0.3, log2 fold
  log2 fold change of ssc-miR-133a-5p in uterus: change Ctrl vs ZEN low ≥ 0.3, TPM > 10
  log2 fold change of ssc-miR-195 in uterus: change Ctrl vs ZEN low ≥ 0.3, TPM > 10
  log2 fold change of ssc-miR-486 in uterus: change Ctrl vs ZEN low ≥ 0.3, TPM > 10
  log2 fold change of ssc-miR-493-5p in uterus: change Ctrl vs ZEN low ≥ 0.3, TPM > 10,
  log2 fold change of ssc-miR-497 in uterus: change Ctrl vs ZEN low ≥ 0.3, TPM > 10
  log2 fold change of ssc-miR-708-3p in uterus: low ≤ −0.3, TPM > 10
Ctrl vs ZEN medium (1.5 mg/kg diet), 28 days in feed
  log2 fold change of ssc-miR-187 in uterus: vs ZEN medium ≤ −0.3, log2 fold change
ZEN high (4.6 mg/kg diet)
  fold change of ssc-miRNA-542-3p in uterus compared to the control group: +12.6
ZEN high (4.6 mg/kg diet), lowest fold change of the group
  fold change of ssc-miRNA-204 in uterus compared to the control group: −4.1
[3]
  Response to ZEN treatment in uterus: hsa-miR-135b-5p: Significantly decreased in ZEN high
  Response to ZEN treatment in uterus: hsa-miR-301a-5p: Significantly decreased in ZEN high
  Response to ZEN treatment in uterus: ssc-miR-22-3p: Significantly increased in ZEN high group,
  Response to ZEN treatment in uterus: ssc-miR-22-5p: Significantly increased in ZEN high group,
  Response to ZEN treatment in uterus: ssc-miR-34a: Significantly increased in ZEN high group
  Response to ZEN treatment in uterus: ssc-miR-125a: Significantly decreased in ZEN high
  Response to ZEN treatment in uterus: ssc-miR-125b: Significantly decreased in ZEN high
  Response to ZEN treatment in uterus: ssc-miR-127: Significantly increased in ZEN high group
  Response to ZEN treatment in uterus: ssc-miR-129a: Significantly decreased in ZEN high
  Response to ZEN treatment in uterus: ssc-miR-133a-5p: Significantly increased in ZEN high group,
  Response to ZEN treatment in uterus: ssc-miR-135: Significantly decreased in ZEN high
  Response to ZEN treatment in uterus: ssc-miR-136: Significantly increased in ZEN high group,
  Response to ZEN treatment in uterus: ssc-miR-140-3p: Significantly increased in ZEN high group,
  Response to ZEN treatment in uterus: ssc-miR-142-3p: Significantly increased in ZEN high group,
  Response to ZEN treatment in uterus: ssc-miR-146b: Significantly decreased in ZEN high
  Response to ZEN treatment in uterus: ssc-miR-182: Significantly increased in ZEN high group
  Response to ZEN treatment in uterus: ssc-miR-183: Significantly increased in ZEN high group,
  Response to ZEN treatment in uterus: ssc-miR-195: Significantly increased in ZEN high group,
  Response to ZEN treatment in uterus: ssc-miR-204: Significantly decreased in ZEN high
  Response to ZEN treatment in uterus: ssc-miR-369: Significantly increased in ZEN high group
  Response to ZEN treatment in uterus: ssc-miR-378: Significantly increased in ZEN high group
  Response to ZEN treatment in uterus: ssc-miR-432-5p: Significantly increased in ZEN high group,
  Response to ZEN treatment in uterus: ssc-miR-455-3p: Significantly increased in ZEN high group,
  Response to ZEN treatment in uterus: ssc-miR-455-5p: Significantly increased in ZEN high group,
  Response to ZEN treatment in uterus: ssc-miR-486: Significantly increased in ZEN high group,
  Response to ZEN treatment in uterus: ssc-miR-493-3p: Significantly increased in ZEN high group,
  Response to ZEN treatment in uterus: ssc-miR-493-5p: Significantly increased in ZEN high group,
  Response to ZEN treatment in uterus: ssc-miR-708-3p: Significantly decreased in ZEN high
  Response to ZEN treatment in uterus: ssc-miR-758: Significantly increased in ZEN high group,
ZEN medium (1.5 mg/kg diet) and high (4.6 mg/kg diet) group vs Ctrl, 28 days in feed
  Response to ZEN treatment in uterus: put-miR-300: Significantly decreased in ZEN medium
ZEN medium (1.5 mg/kg diet)
  fold change of ssc-miRNA-542-3p in uterus compared to the control group: +3.9
ZEN medium (1.5 mg/kg diet), lowest fold change of the group
  fold change of ssc-miRNA-187 in uterus compared to the control group: −3.4
[4]
  Response to ZEN treatment in uterus: ssc-miR-1: Significantly increased in both ZEN
  Response to ZEN treatment in uterus: ssc-miR-143-5p: Significantly increased in both ZEN
  Response to ZEN treatment in uterus: ssc-miR-181c: Significantly decreased in both ZEN
  Response to ZEN treatment in uterus: ssc-miR-187: Significantly decreased in both ZEN
  Response to ZEN treatment in uterus: ssc-miR-206: Significantly increased in both ZEN
  Response to ZEN treatment in uterus: ssc-miR-335: Significantly decreased in both ZEN
  Response to ZEN treatment in uterus: ssc-miR-424-5p: Significantly increased in both ZEN
  Response to ZEN treatment in uterus: ssc-miR-450a: Significantly increased in both ZEN
  Response to ZEN treatment in uterus: ssc-miR-450b-5p: Significantly increased in both ZEN
  Response to ZEN treatment in uterus: ssc-miR-450c-5p: Significantly increased in both ZEN
  Response to ZEN treatment in uterus: ssc-miR-497: Significantly increased in both ZEN
  Response to ZEN treatment in uterus: ssc-miR-503: Significantly increased in both ZEN
  Response to ZEN treatment in uterus: ssc-miR-542-3p: Significantly increased in both ZEN
  Response to ZEN treatment in uterus: ssc-miR-7135-3p: Significantly increased in both ZEN
